Measured values reported in US20120196858A1, “METHOD OF PROMOTING APOPTOSIS AND INHIBITING METASTASIS” (Poniard Pharmaceuticals ,Inc., priority 2009, published 2012).
Read-outs that look alike come from different tables or passages of the source.

Key:
[1] = tested on: p130Cas tyrosine phosphorylation (pY249, pY410); test: Phospho-specific immunoblotting of p130Cas in 4T1 cells; assay type: cell-based, murine
From the text: Immunoblotting: Protein extracts of cells were made using lysis buffer containing 1% Triton X-100, 1% sodium deoxycholate, and 0.1% SDS and were separated by 4-12% SDS-PAGE (sodium dodecyl sulfate polyacrylamide gel electrophoresis) and sequential immunoblotting performed as described in Mitra S K, Lim S T, Chi A, Schlaepfer D D. Intrinsic focal adhesion kinase activity controls orthotopic breast carcinoma metastasis via the regulation of urokinase plasminogen activator expression in a syngeneic tumor model. Oncogene 2006; 25:4429-40. Relative expression levels and phospho-specific antibody reactivity were measured by densitometry analyses of blots using Image J (version 1.42q). Inhibition of FAK and p130Cas tyrosine phosphorylation was quantified by calculating the ratio of pY397 FAK protein to total FAK. Similar analyses were performed for p130Cas using pY410 p130Cas and total p130Cas blot data.

[2] = tested on: 4T1 cells; test: Annexin V binding by flow cytometry; assay type: cell-based, murine; settings: 24 h
Description: (§1) Cell pellets were resuspended in 300 p. 1 of PBS containing propidium iodide (PI) (10 μg/ml), DNAse-free RNAse (100 μg/ml, Qiagen), and then incubated at 37° C. with agitation for 1 h. Samples were analyzed by flow cytometry (FACSCalibur, Becton-Dickinson) and cell cycle analyses were performed by ModFit LT3.2 software (Verity software house). Hypodiploid DNA content as a measure of cell apoptosis was detected by PI staining as described ^29. […] Quadrant gates were positioned based on cell autofluorescence (negative) staurosporine-treated (positive) controls. Apoptosis was calculated to be the percent of annexin V-positive cells. In the soft agar assays, apoptosis was quantified by visual inspection of at least 200 cells and was defined as the appearance of membrane blebbing or cell shrinkage. Apoptosis was also detected by appearance of cleaved caspase-3 antibody reactivity in protein lysates by immunoblotting.

[3] = tested on: 4T1 cells; test: Soft agar colony growth and apoptosis assay; assay type: cell-based, murine
Description: Anchorage-dependent, spheroid, and soft agar cell growth assays: Cells (2×10^5) were plated per 35 mm well under adherent (tissue culture-treated) and non-adherent conditions (poly-HEMA-coated) in 6-well plates (Costar) in growth media. Between 24 and 168 h, all cells were collected, a single cell suspension was prepared by limited trypsin-EDTA treatment, and viable cells were enumerated by trypan blue staining and counting (ViCell XR, Beckman). For spheroid area determination, cells were imaged after 72 h in phase contrast using an Olympus IX51 microscope. Area was calculated using Image J software (version 1.43). For soft agar assays, 48-well plates were coated with a 1:4 mix of 2% agar (EM Science) in 0.2 ml growth media (bottom layer). 5×10^4 cells were plated per well (in triplicate) in a mixture of 0.3% agar in 0.2 ml growth media (top layer). […] After 10 days, colonies were imaged in phase contrast, enumerated by counting 9 fields (3 fields per well), and total area determined using Image J. For all analyses, experimental points were performed in triplicate and were experiments were repeated at least two times.
as §1

[4] = Pharmacokinetic (PK) evaluation in mice; assay type: in vivo, Balb/c mice
Description: Blood samples were collected via terminal heart puncture at 0.5, 1, 2, 4, 8, 12, 24 and 48 h for p.o. administration and 0.083, 0.25, 0.5, 1, 2, 4, 8, 12, 24 and 48 h for i.p. and i.v. administration. 3 mice per time point were used. For ad libitum administration, blood samples were collected after 7 days using five mice per group. Samples were collected in tubes containing 0.05 ml 0.5 M EDTA, centrifuged at 900×g for 15 min at room temperature, and the plasma collected. PND-1186 content was determined by high-performance liquid chromatography (HPLC) and mass spectroscopy analyses (see Supplemental Methods).

[5] = Solubility in water; assay type: physicochemical; settings: HCl salt
From the text: 10, 2008, and published as WO 2008/115369.

[6] = tested on: 4T1 tumors; test: Orthotopic 4T1 breast carcinoma model (breast fat pad)
Description: Immunohistochemistry: For the detection of apoptosis, sections (7 μm) were analyzed using a terminal deoxynucleotidyl transferase dUTP nick end labeling (TUNEL) kit (Roche). For CD45 staining, sections (7 μm) were fixed in 4% paraformaldehyde, rinsed in PBS, and blocked with a solution of PBS containing 5% BSA, 1% goat serum and 0.1% Triton X. FITC-conjugated anti-CD45 antibodies (Invitrogen) at 1 μg/ml in 5% BSA and PBS were incubated for 2 hours. FITC-conjugated IgG2b isotype antibodies (Invitrogen) at the same concentration were used as a negative control. […] Images were sequentially captured at 40× (UPLFL objective, 1.3 NA; Olympus) using a monochrome charge-coupled camera (ORCA ER; Hamamatsu), an inverted microscope (IX51; Olympus), and Slidebook software (v5.0, Intelligent Imaging). Images were pseudo-colored, overlaid, and merged using Photoshop CS3 (Adobe). Fluorescence quantitation was performed using Image J (v1.43).
Orthotopic breast cancer models: One million 4T1 or MDA-MB-231 cells in 10 μl PBS were injected into the T4 mammary fat pad of 8-10 week old mice using a Hamilton syringe. […] Tumors were measured every 3-4 days with digital vernier calipers and tumor volume (mm^3) was calculated using the formula: V=axb^2/2 (a=length, mm; b=width, m) Body weight was measured weekly to assess toxicity. Lungs, spleen, and primary tumors were surgically removed and weighed.
For 4T1 tumor metastasis analyses, lungs were rinsed in PBS, dorsal and ventral fluorescent images acquired using the OV100 Small Animal Imaging System (Olympus). For all images, a common threshold for mCherry fluorescence was set and lung metastatic burden was calculated by determining the average integrated pixel density for micro-tumors present in each lung using Image J software. Metastatic tumor burden (number of metastatic lesion or mean pixel volume) was determined and groups (Negligible, Moderate, and High) were separated based upon numbers distribution. After imaging, lungs were fixed in Bouin's solution (Sigma), paraffin embedded, sectioned, and stained with hematoxylin and eosin (H&E) for histological evaluation. Images were acquired using a differential interference contrast-equipped Olympus IX81 inverted microscope and an Olympus DP71 digital color camera using Slidebook (v5.0) software. […] Lungs were resected, embedded in OCT, and frozen in liquid nitrogen.

[7] = 0.5 mg/ml ad libitum in drinking water
[8] = 150 mg/kg p.o. b.i.d. vs vehicle
[9] = 150 mg/kg p.o., b.i.d., 15 days
[10] = oral, 4T1 and MDA-MB-231 orthotopic models

CNC(=O)c1ccccc1Nc1cc(Nc2ccc(N3CCOCC3)cc2OC)ncc1C(F)(F)F [PND-1186]
p130Cas pY249 phosphorylation in 4T1 spheroids ([1]; 0.1 μM, 3D spheroids): potently inhibited
p130Cas pY410 phosphorylation in 4T1 spheroids ([1]; 0.1 μM, 3D spheroids): potently inhibited
p130Cas pY249 phosphorylation ([1]; adherent 4T1 cells, 1 h, PND-1186 to 1 μM): did not affect
annexin V positive staining, suspended cells ([2]; 0.1 to 0.4 μM): 50-60%
annexin V-positive cells, adherent conditions ([2]; up to 1.0 μM): did not increase
4T1 cell apoptosis (membrane blebbing and cell shrinkage) ([3]; 0.2 μM, soft agar): > 50%
total number and size of soft agar colonies ([3]; 10 days, dose-dependent): inhibited both the total number and size
inhibition at 0.2 µM ([3]; Mus musculus, 4T1, 240 h, 0.2 μM, 10 days, read-out: inhibition of soft agar colony size): 77%
CSS ([4]; 0.5 mg/ml ad libitum, mice): 1.16 µM
AUC(0-inf) ([4]; 2 mg/kg i.v., mice): 6,960 ng · h/mL
Cl ([4]; 2 mg/kg i.v., mice): 4.78 mL/min/kg
Vd ([4]; 2 mg/kg i.v., mice): 0.714 L/kg
t1/2 ([4]; 2 mg/kg i.v., mice): 1.72 h
AUC(0-inf) ([4]; 30 mg/kg i.p., mice): 32,500 ng · h/mL
Cmax ([4]; 30 mg/kg i.p., mice): 34.8 µM
TMAX ([4]; 30 mg/kg i.p., mice): 0.25 h
t1/2 ([4]; 30 mg/kg i.p., mice): 2.27 h
AUC(0-inf) ([4]; 100 mg/kg i.p., mice): 147,000 ng · h/mL
Cmax ([4]; 100 mg/kg i.p., mice): 117 µM
TMAX ([4]; 100 mg/kg i.p., mice): 0.50 h
t1/2 ([4]; 100 mg/kg i.p., mice): 2.65 h
maximal plasma level ([4]; 150 mg/kg oral, by 4 h): ~14 µM
sustained plasma level ([4]; 150 mg/kg oral, for 12 h): above 3 μM
AUC(0-inf) ([4]; 150 mg/kg p.o., mice): 77,400 ng · h/mL
Cmax ([4]; 150 mg/kg p.o., mice): 14 µM
TMAX ([4]; 150 mg/kg p.o., mice): 4.00 h
t1/2 ([4]; 150 mg/kg p.o., mice): 2.15 h
AUC(0-inf) ([4]; Balb/c, mouse, plasma, oral, 0.5 mg/kg, 0.5 mg/ml ad libitum, mice, read-out: AUC(0-inf)): 13.1 ng·h/mL
bioavailability (% F) ([4]; i.p. and p.o. dosing): 14.8 to 42.2%
terminal half lives (t1/2) ([4]; i.p. and p.o. dosing): 2.15 to 2.65 h
dose dependence of plasma concentrations, Cmax and AUC(0-inf) ([4]; mouse, in vivo): increased in a linear fashion as a function of dose
solubility [5]: 22 mg/mL
average concentration in plasma [6, 7]: 1.0 µM
average concentration in tumors [6, 7]: 0.52 µg/g
tumor growth and tumoral FAK-p130Cas phosphorylation [6, 7]: significantly decreased tumor growth and tumoral FAK-p130Cas phosphorylation
decrease in CD45 tumor-associated staining ([6]; 150 mg/kg): 2.8 fold
tumor vasculature (anti-CD31 staining) ([6]; 150 mg/kg p.o. b.i.d.): no major vascular differences
increase of TUNEL staining in breast fat pad tumors [6, 8]: 2.8 fold
tumor volume by Day 7 [6, 8]: significantly reduced tumor volume
reduction of final tumor weight ([6]; 150 mg/kg p.o. b.i.d., 16 days): 3.1 fold
total body weight ([6]; 150 mg/kg p.o. b.i.d., 16 days): without affects on total body weight
orthotopic and syngeneic breast carcinoma tumor growth and spontaneous metastasis to lungs ([6]; 150 mg/kg p.o. bid): significantly inhibited
lung metastases by H&E staining of lung sections [6, 9]: detectable 4T1 lung metastases in control but not PND-1186-treated mice
mice with high lung metastatic burden [6, 9]: no mice with a high metastatic burden
mice with negligible lung metastases [6, 9]: 7/12
tumor histology ([6]; ad libitum PND-1186): necrotic regions at the tumor core, increased TUNEL staining, and decreased leukocyte infiltrate
FAK pY397 and p130Cas pY410 phosphorylation in primary tumors ([6]; ad libitum oral): sufficient to inhibit both FAK pY397 and p130Cas pY410 phosphorylation
mice with negligible to moderate lung metastatic burden ([6]; ad libitum oral): 13/15
pY118 paxillin phosphorylation in tumors ([6]; ad libitum oral): inhibited pY118 paxillin phosphorylation
pY416 Src, pY402 Pyk2, pS473 Akt, pT308 Akt phosphorylation in tumors ([6]; ad libitum oral): not pY416 Src nor pY402 Pyk2, pS473 Akt, or pT308 Akt phosphorylation
spleen size ([6]; ad libitum oral): normal size
inhibition of final tumor mass ([6]; ad libitum oral, Day 22): > 1.8 fold
toxicity or weight loss ([6]; ad libitum oral, Day 22): without toxicity or weight loss
tumor-associated inflammatory cell infiltration and splenomegaly ([6]; mice with syngeneic 4T1 tumors): significantly decreased tumor-associated inflammatory cell infiltration and splenomegaly
tumor-associated splenomegaly ([6]; mouse, in vivo): reduced tumor-associated splenomegaly
anti-tumor and anti-metastatic effects [6, 10]: significant anti-tumor and anti-metastatic effects
tolerability of oral dosing [6, 10]: without animal morbidity, death or weight loss
spleen appearance ([6]; tumor-bearing PND-1186-treated mice): healthy and indistinguishable from non-treated, non-tumor bearing mice
